Source: US20250002960A1, “COMPOSITIONS AND METHODS FOR NUCLEIC ACID EXTENSION” (Pacific Biosciences of California, Inc., priority 2023, published 2025)
Like-named read-outs stand apart in the source and are kept apart here.

Key:
[1] = tested on: NO bond at the 3′ position of a polynucleotide; test: Octet/CE cyclic extension assay (SBB extension cycles, extended primer length read by capillary electrophoresis); format: biochemical
Text: The polynucleotides were Cy3-primers hybridized to biotinylated template DNA which were in turn bound to streptavidin coated tips of the Octet system. The Octet system move a set of 8 tips between the wells of a heated 96-well plate, for a set number of SBB extension cycles. Each cycle included an IMG step under conditions at which fluorescent nucleotides of ternary complexes could be imaged, an RTN step in which amineoxy terminated nucleotides were incorporated at the 3′ end of the primer by a polymerase, a wash step that removes excess nucleotides, and a CLV step that exposes the amineoxy terminated extended primer to a deblocking agent or candidate. The length of extended polynucleotides were then detected by capillary electrophoresis (CE), as described in US Patent Pub. No. 2019/0241945, the content of which is incorporated herein.
Polynucleotide sequence was synthesized using the Octet/CE method where non-extendable polynucleotides having a 3′ amineoxy group were used to reversibly stop extension, as shown in the workflow scheme of FIG. 1A.
(§1) CDP was formulated with a number of different buffers at different pH and various different amines as solubility enhancers. 47 formulations were made and tested. In general, CDP was dissolved in water and loaded onto Dowex 50™ cation exchange resin, and incubated for a few minutes. The resin was eluted with an aqueous solution of the amine solubility enhancer. The resulting solution was either used directly in Octet/CE assays or dried form a solid that was very soluble in water.
A number of other carbonyl compounds were test for their ability to cleave the NO bond at the 3′ position of a polynucleotide, according to the assay design shown in FIG. 1A.
Deblocking candidates were tested at various concentrations, generally between 1 and 100 mM (e.g., at 1 mM, 2 mM, 4 mM, 8 mM, 20 mM, 35 mM, 40 mM, 70 mM, and/or 100 mM for different candidates), in acetate (1 M) and tris (0.2 M) buffers, and buffered at pH 6 or 8, with and without amine counterion.

[2] = tested on: library of polynucleotides; test: Sequencing-by-binding run, On/Off signal intensity by cycle; format: biochemical; conditions: after 150 cycles, CDP versus SOP (sodium NO2)
Experimental: A library of polynucleotides were sequenced in a sequencing-by-binding workflow, and On/Off signal intensity was measured in each sequencing cycle, as described in US Patent Pub. No. 2020/0032317, the content of which is incorporate herein. Specifically, ‘on’ signal intensity (corresponds to the binding of the cognate nucleotide) and ‘off’ signal intensity (corresponds to the binding of the non-cognate nucleotide) in each SBB cycle. By using [NaNO2] 2 M and considering pH 5.2 and based on Henderson-Hasselbalch equation, we calculated that 18 mM of the nitrous acid exists in CLV (Cleave) reagent. Although, this cleave formulation is efficient in converting dNTP-RT to dNTP on the sequencing strand, however, it may have one or more disadvantages, such as instability, corrosivity, and/or DNA damage. Regarding instability: nitrous acid in our current CLV reagent degrades and produces nitrogen oxide gas (NOx) which weaken strength of the deblocking reagent. Nitrous acid is very corrosive and has […] with plastics consumables and instruments.
Y axis is on/off intensities. […] A library of polynucleotides were sequenced in a sequencing-by-binding workflow, and On/Off signal intensity was measured in each sequencing cycle, as described in US Patent Pub. […]

[3] = Solubility of the deblocking agent in the deblocking composition; format: physicochemical; conditions: in words
Experimental: as §1

[4] = compared to SOP cleave in sodium acetate buffer, in words

Row | Molecule | Extension at 40 C. in 37 cycles Octet CE assay [1] | cleavage of NO bond (deblocking, extension in multiple cycles) ([1]; in words) | Extension at 52 C. in 37 cycles octet/Ce assay [1] [bp Extension] | also measured
1 | CNC(=O)NC [Dimethyl urea, reference compound] | No Extension | – | – | –
2 | O=C(P(=O)(O)O)P(=O)(O)O [CDP, Carbonyl diphosphonate] | 37 bp Extension | deblocking | – | signal to noise ratio [2]: comparable; cleavage of NO bond (deblocking, extension in multiple cycles) [1]: comparable to NaNO2; negative phasing ([1]; 37 cycles of extension): 0.21%; positive phasing ([1]; 37 cycles of extension): 0.17%; negative dephasing on electropherogram [1, 4]: higher negative dephasing; positive dephasing on electropherogram [1, 4]: higher positive dephasing; dephasing of product ([1]; compared to SOP, in words): minimal dephasing; solubility issue [3]: slight solubility issue
3 | Hydroxycarbamide [reference compound] | No extension | – | – | –
4 | O=N[O-].[Na+] [NaNO2, sodium nitrite, reference compound] | – | – | – | negative phasing [1]: 0.04%; positive phasing [1]: 0.05%
5 | CCC(=O)CP(=O)([O-])[O-].[Na+].[Na+] [Di sodium (2-oxobutyl)phosphonate] | 4 bp Extension | deblocking | 4 | –
6 | CC(=O)OP(=O)([O-])[O-].[K+].[Li+] [LiK Aceyl Phosphate, reference compound] | No Extension | – | – | –
7 | O=Cc1ccc(S(=O)(=O)[O-])cc1S(=O)(=O)[O-].[Na+].[Na+] [Di sodium 4-formylbenzene-1,3-disolfonate] | 3 bp Extension | deblocking | 3 | –
8 | COP(=O)([O-])C(C)=O.[Na+] [methyl acetylphosphonate, methyl acetylphosphonate CH3—CO—PO(Ome)—O^− Na^+, reference compound] | No Extension | – | – | –
9 | CS(=O)(=O)CC(=O)c1ccccc1 [Methyl sulfonyl acetophenone] | 5 bp Extension | deblocking | 5 | –
10 | CC(=O)P(=O)([O-])[O-].[Na+].[Na+] [Di sodium acetylphosphonate] | 12 bp Extension | deblocking | 3 | –
